What all share (type): in vivo
For series [1], the system named is endogenous Nicotiana benthamiana Argonaute-1 (AGO1) gene. Nature of the series: AGO1 anti-sense with PDS anti-sense, systemic bleaching (Example 33). Particulars: PDS 25 nanomoles; AGO1 50 nanomoles of each of 14; combined applied on separate leaves. As for the experimental part: Nicotiana benthamiana plants were treated using a procedure similar to that described in Example 12. Polynucleotide solution (or mixed polynucleotides in the case of AGO1) were prepared in 0.01% (v/v) Silwet L-77 and 2% (w/v) ammonium sulfate in 5 millimolar sodium phosphate, pH 6.8. Two fully expanded leaves per plant were dipped into 0.1% Silwet L-77 solution freshly made with ddH2O for a few seconds, and allowed to dry. About 30 minutes later, 20 microliters of polynucleotide solution was applied to each of the two pre-treated leaves. For PDS, each of 5 plants received 25 nanomoles of the PDS anti-sense polynucleotide (SEQ ID NO:34); for AGO1, each of 5 plants received 50 nanomoles of each of the 14 AGO1 anti-sense polynucleotides (SEQ ID NOS:300-313); for PDS and AGO combined treatments, each of 5 plants received 25 nanomoles of the PDS anti-sense polynucleotide (SEQ ID NO:34) and 50 nanomoles of each of the 14 AGO1 anti-sense polynucleotides (SEQ ID NOS:300-313) applied on separate leaves. Paired control plants were treated with buffer (0.01% (v/v) Silwet L-77 and 2% (w/v) ammonium sulfate in 5 millimolar sodium phosphate, pH 6.8). No difference was observed between plants treated with the AGO1 anti-sense polynucleotides and the plants treated with buffer alone.

Series [2] concerns Nicotiana benthamiana phytoene desaturase. Nature of the series: Topical oligonucleotides/polynucleotides on tobacco, PDS bleaching and chlorophyll (Example 10). Here is the method: The following procedure was used for all assays described in this example. Four-week old Nicotiana benthamiana plants were used in all assays. Plants were treated with 0.1% Silwet L-77 solution freshly made with ddH2O. Two fully expanded leaves per plant (one cotyledon, one true leaf) were dipped into the Silwet L-77 solution for a few seconds, and allowed to dry for 15-30 minutes before application of the polynucleotide composition. Final concentration for each oligonucleotide or polynucleotide was 25 microM (in 0.01% Silwet L-77, 5 mM sodium phosphate buffer, pH 6.8) unless otherwise stated. 20 microliters of the solution was applied to the top surface of each of the two pre-treated leaves to provide a total of 40 microliters (1 nmol oligonucleotide or polynucleotide) for each plant. Leaf bleaching was observed 3 days post treatment.
FIG. 13 illustrates phenotypes observed at day 12 after treatment in another assay of the effect from twelve combinations of polynucleotides or oligonucleotides (see Table 4). Table 4 also lists observations of visible bleaching of the plants at day 5 after treatment and the results of chlorophyll measurements taken at days 7 and 12 after treatment. Chlorophyll measurements are an indication of suppression of the target gene phytoene desaturase, and measurements were taken at 6 spots on the apical area, focussing on visibly bleached leaves or (in plants without visible bleaching) on leaves in equivalent locations on the plants; lower chlorophyll measurement values indicate suppression of phytoene desaturase.

For series [3], the system named is endogenous PDS, EPSPS, or RuBisCO genes from Nicotiana benthamiana. As to the kind of experiment: PDS, EPSPS, RuBisCO anti-sense polynucleotides on Nicotiana benthamiana, plant height (Example 33). Particulars: PDS 25 nanomoles, EPSPS and RuBisCO 50 nanomoles of each per plant. Here is the method:
Nicotiana benthamiana plants were treated using a procedure similar to that described in Example 12. Polynucleotide solution (or mixed polynucleotides in the case of EPSPS and RuBisCO) were prepared in 0.01% (v/v) Silwet L-77 and 2% (w/v) ammonium sulfate in 5 millimolar sodium phosphate, pH 6.8. Two fully expanded leaves per plant were dipped into 0.1% Silwet L-77 solution freshly made with ddH2O for a few seconds, and allowed to dry. About 30 minutes later, 20 microliters of polynucleotide solution, was applied to each of the two pre-treated leaves. For PDS, each of 5 plants received 25 nanomoles of the PDS anti-sense polynucleotide (SEQ ID NO:34); for EPSPS, each of 5 plants received 50 nanomoles of each EPSPS anti-sense polynucleotide (SEQ ID NOS:279-284); and for RuBisCO, each of 5 plants received 50 nanomoles of each RuBisCO anti-sense polynucleotide (SEQ ID NOS:288-295). Paired control plants were treated with buffer (0.01% (v/v) Silwet L-77 and 2% (w/v) ammonium sulfate in 5 millimolar sodium phosphate, pH 6.8).

Series [4] deals with phytoene desaturase (PDS) gene in lettuce (Lactuca sativa). Nature of the series: Topical PDS ssDNA on lettuce, bleaching (Example 24). Particulars: 8 nanomoles polynucleotide per plant (mixture: 2 nanomoles each); observed at 4. As for the experimental part: Lettuce variety LS49 “Green Tower” was used in the assays. Two fully expanded leaves of each plant were dipped into a freshly made 0.1% Silwet L-77 in double-distilled water solution for a few seconds. The leaves were allowed to dry for 15-30 minutes. Each plant was then treated by applying 20 microliters ssDNA solution to the top surface of two Silwet-treated leaves (total 40 microliters per plant). Table 9 lists the assay conditions used and the observed bleaching of plants topically treated with ssDNA polynucleotides.
The assays were repeated with 2 or 4 nanomoles ssDNA applied per plant.
The assays were repeated using each individual anti-sense ssDNAs (“HL287”, SEQ ID NO:55; “HL288”, SEQ ID NO:56; “HL289”, SEQ ID NO:57; and “HL290”, SEQ ID NO:58) with 8 nanomoles polynucleotide applied per plant; positive control plants were treated with a mixture of the four individual anti-sense ssDNAs at 2 nanomoles each (for a total of 8 nanomoles polynucleotide applied per plant) and negative control plants were treated only with buffer.

The test system of series [5] is Glyphosate-resistant Palmer amaranth plants having 49 or 63 copies EPSPS. Nature of the series: Salicylic acid pretreatment with dsRNA and glyphosate (Example 15). Particulars: 15 millimolar SA 1, 5, or 24 hours before dsRNA; glyphosate 72 hours later; 7 days after glyphosate. As for the experimental part: Salicylic acid (SA) induces virus resistance in tobacco; see, e. g., Chivasa et al. (1997) Plant Cell, 19:547-557. Glyphosate-resistant Palmer amaranth plants having 49 or 63 copies EPSPS were pretreated with 15 millimolar SA. A solution of the four oligonucleotide-size “short” EPSPS dsRNA molecules (described in Example 1) was applied by hand at 1, 5, or 24 hours after treatment with SA, followed 72 hours later by spraying with glyphosate (1682 g acid equivalent per hectare of Roundup® WeatherMAX® brand herbicide).

Series [6] concerns phytoene desaturase (PDS) gene in tomato (Solanum lycopersicum). Nature of the series: Topical PDS dsRNA on tomato (Example 25). The note with it: 2.5 micromolar dsRNA, 40 microliters per plant. The source says: A 201 nucleotide dsRNA polynucleotide with an anti-sense strand capable of hybridizing to the RNA encoded by the sequence […] […] […] AG (SEQ ID NO:60) which correspond to the nucleotides at positions 1724-1923 of the mRNA transcribed from the tomato PDS gene sequence (SEQ ID NO:59) was synthesized by RT PCR using oligonucleotide primers with the sequences […] (SEQ ID NO:61, sense primer) and […] (SEQ ID NO:62, anti-sense primer). A 2.5 micromolar dsRNA solution was made with the 201 nucleotide dsRNA polynucleotide (SEQ ID NO:60) in 0.01% Silwet L-77 in 5 millimolar sodium phosphate buffer, pH 6.8.
Three-week old tomato seedlings were treated as follows. Two fully expanded leaves were dipped into a freshly made 0.1% Silwet L-77 solution in double-distilled water for a few seconds. The leaves were allowed to dry for 30 minutes to 1 hour. Each plant was then treated by applying 20 microliters dsRNA solution to the top surface of two Silwet-treated leaves (total 40 microliters per plant). Control plants were treated with buffer. The plants were kept in a growth chamber for observation. FIG. 30 depicts the systemic silencing of the target gene PDS as evidenced by bleaching of the dsRNA-treated plants 30 days after topical treatment.

For series [7], the system named is glyphosate-resistant soybean plants. Nature of the series: Synthetic Pol III gene dsDNA, soybean crop (Example 8). The note with it: 0.1 wt % Silwet L-77 and dsDNA sprayed, glyphosate 7 days later; 15 days later. An excerpt: (§1) This example illustrates the utility of employing a synthetic Pol III gene in compositions and methods of this invention. With reference to SEQ ID NO:3 and FIG. 2, a synthetic Pol III gene is created using elements from an Arabidopsis thaliana U6 snRNA gene to provide a dsDNA molecule with two copies of RGCCCR elements (bold and underlined), an upstream sequence element (USE) having the sequence “[…]” (SEQ ID NO:4, bold and underlined), a TATA box (bold and underlined), a “G” nucleotide (bold and underlined), anti-sense DNA (italics) corresponding to a bacterial DNA encoding an EPSPS protein (see U.S. Pat. No. RE39,247) that imparts resistance to glyphosate herbicide when expressed in transgenic corn plants, an “[…]” element (SEQ ID NO:5, bold and underlined) embedded in the anti-sense DNA, an “[…]” element (SEQ ID NO:6, bold and underlined) followed by sense DNA (lower case) and a “TTTTTT” terminator element (SEQ ID NO:7, bold and underlined). A solution of 0.1 wt % Silwet L-77 brand organosilicone surfactant and a solution of multiple copies of the dsDNA molecule are sprayed onto leaves of volunteer glyphosate-resistant corn plants growing in a field of glyphosate-resistant soybean plants, followed 7 days later by treatment with Roundup WeatherMAX® brand glyphosate herbicide. […]

Series [8] deals with volunteer glyphosate-resistant corn plants. As to the kind of experiment: Synthetic Pol III gene dsDNA on volunteer corn (Example 8). Particulars: 0.1 wt % Silwet L-77 and dsDNA sprayed, glyphosate 7 days later; 15 days later.
Description: as §1

For “PDS 21-mer anti-sense ssDNA: SEQ ID NO:34 (antisense CATCTCCTTTAATTGTACTGC; DNA, backbone not given here)”, the “systemic bleaching / difference from buffer” value in series [1] is on record as “displayed systemic bleaching”. For the same molecule, the “bleaching of apical leaves (FIG. 15)” value in series [2] (another assay) was “strong bleaching”. Also, in series [2] (topical treatment), the “bleaching of apical leaves (FIG. 14)” value was “Strong bleaching”. The “plant height (FIG. 36)” value in series [3] (12 days (PDS and EPSPS) or 10 days (RuBisCO) after treatment) is reported as “severe stunting”. Besides, the other phenotype entry in series [3] was “bleaching”.
Take “HL290: SEQ ID NO:58, anti-sense ssDNA, lettuce PDS (antisense CAAATAAATTTTGTACATTTGGGTAAGCTCCAA; DNA, backbone not given here)”: the “systemic silencing (FIG. 29B)” value in series [4] was “systemic silencing evidenced by bleaching”.
Still for that read-out and setting: as for “HL288: SEQ ID NO:56, anti-sense ssDNA, lettuce PDS (antisense CCATTCAATGGTGCAGGTAAAAC; DNA, backbone not given here)”, the entry is “systemic silencing evidenced by bleaching”.
`O=C(O)c1ccccc1O` [SA, Salicylic acid]: the “improvement of the effects of the dsRNAs and glyphosate activity (plant height)” value in series [5] is “No improvement”.
On to “HL289: SEQ ID NO:57, anti-sense ssDNA, lettuce PDS (antisense CATAGAATGCTCCTTCCACTG; DNA, backbone not given here)”, for which the “systemic silencing (FIG. 29B)” value in series [4] is listed as “systemic silencing evidenced by bleaching”.

B1: 201 nucleotide dsRNA polynucleotide: dsRNA to SEQ ID NO:60, positions 1724-1923 of tomato PDS mRNA (nucleic acid)
sense: TCGCAGCGACTCAGAAATTATTGATGCAACGATGAAGGAACTAGCAACGCTTTTTCCTGATGAAATTTCAGCAGATCAAAGCAAAGCAAAAATATTGAAGTACCATGTTGTCAAAACTCCGAGGTCTGTTTATAAAACTGTGCCAGGTTGTGAACCCTGTCGGCCTTTACAAAGATCCCCAATAGAGGGGTTTTATTTAG
modifications: complementary strand
Consider B1, for which the “plant growth compared to control plants” value in series [6] was “severely stunted”. In series [6] (30 days after topical treatment), the “systemic silencing of PDS (FIG. 30)” value is recorded as “bleaching”.

B2: synthetic Pol III gene: dsDNA, SEQ ID NO:3, U6 snRNA elements with anti-sense and sense DNA of bacterial EPSPS (nucleic acid)
DNA: GGCCCATAGGCCTTTTTCTAAAATAGGCCCATTTAAGCTATTAACAATCTTCAAAAGTACCACATCGCTTAGGTAAAGAAAGCAGCTGAGTTTATATATGGTTAGAGACGAAGTAGTGATTGCGACGAGCGACGTCTCGCCCTCATCGCAATCCACGCCATTGAGCTTGAGGCCATTGGCGACGGCCGAGAGGCGGTCGCTTAAGATTAGCATGTCCTTGACGCGGAGTTCTTCCAGACCGTTCATCACGGTCGCCCCTTCCGCGAAGGCGGCGGCGACAGCGAGAATCGGATATTCGTCGATCATCGAAGGCGCGCGGTCTTCCGGCACCGTGACGCATAAACACGGTGCCGGAAGACCGCGCGCCTTCGATGATCGACGAATATCCGATTCTCGCTGTCGCCGCCGCCTTCGCGGAAGGGGCGACCGTGATGAACGGTCTGGAAGAACTCCGCGTCAAGGAAAGCGACCGCCTCTCGGCCGTCGCCAATGGCCTCAAGCTCAATGGCGTGGATTGCGATGAGGGCGAGACGTCGCTCGTCGTTTTTTTTGGCAAAAA
Regarding B2, the soybean plant outcome in series [7] is on record as “thriving”. Also, the corn plant outcome in series [8] was “dead”.

These data come from patent publication US20130047297A1, “POLYNUCLEOTIDE MOLECULES FOR GENE REGULATION IN PLANTS” (priority 2010, published 2013).
